According to patent publication US20250154154A1 (Relay Binney Street, 2nd Floor, priority 2020, published 2025):

What was measured:
[1] = test system: RBE cells; assay: Cell Viability Protocol (CellTiterGlo), RBE cells; format: cell-based; conditions: RBE or SNU-1079 cells, 72 or 120 hour, cell line and time not given
How it was run: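 After 72 h or 120 h compound exposure at 37° C, viability was read by CellTiterGlo as % of DMSO vehicle, with IC50 fitted by a 4-parameter curve. Cells had been seeded at 1200/well in 10% FBS RPMI 1640 and allowed 24 h before dosing.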

[2] = test system: phospho-S6RP (Ser 235/236) in RBE cells; assay: Cellular Proliferation Protocol (cellular phospho-S6RP HTRF), RBE cells; format: cell-based; conditions: 6 hours treatment, RBE or SNU-1079 cells, cell line not given
How it was run: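 Phospho-S6RP (Ser 235/236) was quantified by HTRF in lysed RBE cells (2000/well) after a 6 h treatment at 37° C, with overnight antibody incubation at room temperature. IC50 values came from 4-parameter dose-response fits relative to DMSO vehicle.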

[3] = molecular target: SRC (Homo sapiens, UniProt P12931); assay: SRC Biochemical Assay Protocol (microfluidic mobility shift assay, FLPeptide4 substrate)
How it was run: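 Mobility-shift readout of phosphorylated FLPeptide4 (1.5 μM) after 90 min kinase reaction with 50 μM ATP and 0.26 nM SRC in pH 7.4 HEPES buffer. Compounds, tested 0.0017–100 μM, were preincubated 30 min with enzyme and peptide; IC50 from 4-parameter logistic fit versus neutral controls.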

| IC50 [3] [µM] | Compound | IC50 [1] [µM] | IC50 ([2]; 6 h) [µM] | IC50 [2] [µM] |
| --- | --- | --- | --- | --- |
| 0.01 to 1 | C=CC(=O)N1CC[C@@H](N2CC(C#Cc3c(-c4ccc(Oc5cccc(C)n5)cc4)c4c(N)ncnc4n3C)C2)[C@@H](F)C1 [II-201, 1-((3S,4R)-4-(3-((4-amino-7-methyl-5-(4-(6-methylpyridin-2-yloxy)phenyl)-7H-pyrrolo[2,3-d]pyrimidin-6-yl)ethynyl)azetidin-1-yl)-3-fluoropiperidin-1-yl)prop-2-en-1-one] | 0.01 to 1 | 0.01 to 1 | – |
| 0.01 to 1 | COC/C=C/C(=O)N1CCC(N2CC(C#Cc3c(-c4ccc(Oc5ccccc5)cc4)c4c(N)ncnc4n3C)C2)CC1 [II-187, (E)-1-(4-(3-((4-amino-7-methyl-5-(4-phenoxyphenyl)-7H-pyrrolo[2,3-d]pyrimidin-6-yl)ethynyl)azetidin-1-yl)piperidin-1-yl)-4-methoxybut-2-en-1-one] | ≤ 0.01 | ≤ 0.01 | – |
| ≤ 0.01 | C=CC(=O)N1CCC(N2CC(C#Cc3c(-c4ccc(Cl)c(C)c4)c4c(N)ncnc4n3C(C)C)C2)CC1 [II-114] | 0.01 to 1 | – | 0.01 to 1 |
| 0.01 to 1 | C=CC(=O)N1CCC(N2CC(C#Cc3c(-c4ccc(Oc5ccccc5)cc4)c4c(N)ncnc4n3CCO)C2)CC1 [II-190, 1-(4-(3-((4-amino-7-(2-hydroxyethyl)-5-(4-phenoxyphenyl)-7H-pyrrolo[2,3-d]pyrimidin-6-yl)ethynyl)azetidin-1-yl)piperidin-1-yl)prop-2-en-1-one] | ≤ 0.01 | 0.01 to 1 | – |
| 0.01 to 1 | Cn1c(C#CC2CC3(C2)CN(C(=O)/C=C/CN2CC(F)C2)C3)c(-c2ccc(Oc3ccccc3)cc2)c2c(N)ncnc21 [II-175, (E)-1-(6-((4-amino-7-methyl-5-(4-phenoxyphenyl)-7H-pyrrolo[2,3-d]pyrimidin-6-yl)ethynyl)-2-azaspiro[3.3]heptan-2-yl)-4-(3-fluoroazetidin-1-yl)but-2-en-1-one] | ≤ 0.01 | 0.01 to 1 | – |
| 0.01 to 1 | C=CC(=O)N1CCC(N2CC(C#Cc3c(-c4ccc(Oc5ccccc5)cc4)c4c(N)ncnc4n3[C@H](C)CO)C2)CC1 [II-168, (R)-1-(4-(3-((4-amino-7-(1-hydroxypropan-2-yl)-5-(4-phenoxyphenyl)-7H-pyrrolo[2,3-d]pyrimidin-6-yl)ethynyl)azetidin-1-yl)piperidin-1-yl)prop-2-en-1-one] | ≤ 0.01 | ≤ 0.01 | – |
| 0.01 to 1 | Cc1cccc(Oc2ccc(-c3c(C#C[C@@H]4[C@H]5CN(C(=O)/C=C/CN(C)C)C[C@@H]45)n(C)c4ncnc(N)c34)cc2)n1 [II-208, (2E)-1-[(1R,5S,6S)-6-[2-(4-amino-7-methyl-5-[4-[(6-methylpyridin-2-yl)oxy]phenyl]-7H-pyrrolo[2,3-d]pyrimidin-6-yl)ethynyl]-3-azabicyclo[3.1.0]hexan-3-yl]-4-(dimethylamino) but-2-en-1-one] | 0.01 to 1 | 0.01 to 1 | – |
| 0.01 to 1 | C=CC(=O)N1CC[C@H](N2CC(C#Cc3c(-c4ccc(Oc5cccc(C)n5)cc4)c4c(N)ncnc4n3C)C2)[C@H](F)C1 [II-202, 1-((3R,4S)-4-(3-((4-amino-7-methyl-5-(4-(6-methylpyridin-2-yloxy)phenyl)-7H-pyrrolo[2,3-d]pyrimidin-6-yl)ethynyl)azetidin-1-yl)-3-fluoropiperidin-1-yl)prop-2-en-1-one] | 0.01 to 1 | 0.01 to 1 | – |
| 0.01 to 1 | C=CC(=O)N1CCC(N2CC(F)(C#Cc3c(-c4ccc(Oc5cccc(C)n5)cc4)c4c(N)ncnc4n3C)C2)C[C@H]1CO (stereo partly drawn) [II-204, 1-((2S)-4-(3-((4-amino-7-methyl-5-(4-((6-methylpyridin-2-yl)oxy)phenyl)-7H-pyrrolo[2,3-d]pyrimidin-6-yl)ethynyl)-3-fluoroazetidin-1-yl)-2-(hydroxymethyl)piperidin-1-yl)prop-2-en-1-one] | 0.01 to 1 | 0.01 to 1 | – |
| ≤ 0.01 | C=CC(=O)N1CC[C@H](N2CC(C#Cc3c(-c4cccc5c4OCO5)c4c(N)ncnc4n3C(C)C)C2)[C@H](F)C1 [II-110] | 0.01 to 1 | – | ≤ 0.01 |
| 0.01 to 1 | C=CC(=O)N1CCC(N2CC(C#Cc3c(-c4ccc(Cl)c(F)c4)c4c(N)ncnc4n3C)C2)CC1 [II-96] | 0.01 to 1 | – | 0.01 to 1 |
| 0.01 to 1 | C=CC(=O)N1CC[C@@H](N2CC(C#Cc3c(-c4ccc(Oc5ccccc5)cc4)c4c(N)ncnc4n3C)C2)[C@@H](O)C1 [II-165, 1-((3S,4R)-4-(3-((4-amino-7-methyl-5-(4-phenoxyphenyl)-7H-pyrrolo[2,3-d]pyrimidin-6-yl)ethynyl)azetidin-1-yl)-3-hydroxypiperidin-1-yl)prop-2-en-1-one] | ≤ 0.01 | ≤ 0.01 | – |
| 0.01 to 1 | C=CC(=O)N1CCC(N2CC(F)(C#Cc3c(-c4ccc(Oc5cccc(C)n5)cc4)c4c(N)ncnc4n3C)C2)CC1 [II-203, 1-(4-[3-[2-(4-amino-7-methyl-5-[4-[(6-methylpyridin-2-yl)oxy]phenyl]-7H-pyrrolo [2,3-d]pyrimidin-6-yl)ethynyl]-3-fluoroazetidin-1-yl]piperidin-1-yl)prop-2-en-1-one] | 0.01 to 1 | 0.01 to 1 | – |
| ≤ 0.01 | CCn1c(C#C[C@@H]2[C@H]3CN(C(=O)/C=C/CN(C)C)C[C@@H]23)c(-c2cccc3c2OCO3)c2c(N)ncnc21 [II-117] | ≤ 0.01 | – | ≤ 0.01 |
| 0.01 to 1 | Cn1c(C#CC2CCCN(C(=O)/C=C/CN3CCOCC3)CC2)c(-c2ccc(Oc3ccccc3)cc2)c2c(N)ncnc21 (stereo not drawn) [II-181, (E)-1-(4-((4-amino-7-methyl-5-(4-phenoxyphenyl)-7H-pyrrolo[2,3-d]pyrimidin-6-yl)ethynyl)azepan-1-yl)-4-morpholinobut-2-en-1-one] | 1 to 10 | 1 to 10 | – |

Continued, compound first:

| Compound | IC50 [3] [µM] | IC50 [1] [µM] | IC50 ([2]; 6 h) [µM] | IC50 [2] [µM] |
| --- | --- | --- | --- | --- |
| C=CC(=O)N1CCC(N2CC(C#Cc3c(-c4ccc(Cl)cc4)c4c(N)ncnc4n3CCOC)C2)CC1 [II-85] | 0.01 to 1 | 0.01 to 1 | – | 0.01 to 1 |
| C=CC(=O)N1CCC(C#Cc2c(-c3ccc(Oc4ccccc4)cc3)c3c(N)ncnc3n2C2CCNC2=O)CC1 (stereo not drawn) [Example I-61] | 0.01 to 1 | 1 to 10 | 1 to 10 | – |
| 1-((3R,4S)-4-(3- ((4-amino-5-(4-(3- fluorophenoxy) phenyl)-7-methyl-7H- pyrrolo[2,3- d]pyrimidin-6- yl)ethynyl)azetidin- 1-yl)-3- hydroxypiperidin- 1-yl)prop-2-en-1- one [II-249] | 0.01 to 1 | ≤ 0.01 | – | ≤ 0.01 |
| 1-(4-(3-((4-amino-5-(3-ethoxy-4-phenoxyphenyl)-7-methyl-7H-pyrrolo[2,3-d]pyrimidin-6-yl)ethynyl)azetidin-1-yl)piperidin-1-yl)prop-2-en-1-one [II-36] | 0.01 to 1 | 0.01 to 1 | – | 0.01 to 1 |
| C=CC(=O)N1CCC(C#Cc2c(-c3ccc(Oc4ccccc4)cc3)c3c(N)ncnc3n2C2CCOC2)CC1 (stereo not drawn) [Example I-32] | 0.01 to 1 | 0.01 to 1 | ≤ 0.01 | – |
| C=CC(=O)N1CCC(N2CC(C#Cc3c(-c4ccc(Cl)cc4)c4c(N)ncnc4n3C(C)C)C2)CC1 [II-84] | ≤ 0.01 | 0.01 to 1 | – | 0.01 to 1 |
| C=CC(=O)N1CCC(C#Cc2c(-c3ccc(Oc4ccccc4)cc3)c3c(N)ncnc3n2C(C)C)C1 (stereo not drawn) [Example I-5] | ≤ 0.01 | ≤ 0.01 | ≤ 0.01 | – |
| C=CC(=O)N1CCC(N2CC(C#Cc3c(-c4ccc(Cl)c(CO)c4)c4c(N)ncnc4n3C)C2)CC1 [II-90] | 0.01 to 1 | 0.01 to 1 | – | 0.01 to 1 |
| C=CC(=O)N1CC[C@@H](N2CC(C#Cc3c(-c4ccc(Cl)cc4)c4c(N)ncnc4n3CCOC)C2)[C@@H](O)C1 [II-54] | 0.01 to 1 | 0.01 to 1 | – | 0.01 to 1 |
| C=CC(=O)N1CCC(N2CC(C#Cc3c(-c4cc(OC)c(Cl)c(OC)c4)c4c(N)ncnc4n3C)C2)CC1 [II-91] | 0.01 to 1 | 0.01 to 1 | – | 0.01 to 1 |
| C=CC(=O)N1C[C@@H]2[C@@H](C#Cc3c(-c4ccc(Cl)c(OC)n4)c4c(N)ncnc4n3C(C)C)[C@@H]2C1 [II-62] | ≤ 0.01 | 0.01 to 1 | – | 0.01 to 1 |
| C=CC(=O)N1CCC(C#Cc2c(-c3ccc(Oc4cccc(C)n4)cc3)c3c(N)ncnc3n2C(C)C)CC1 [Example I-23] | 0.01 to 1 | 0.01 to 1 | 0.01 to 1 | – |
| C=CC(=O)N1CCC(N2CC(C#Cc3c(-c4ccc(OC5COC5)cc4)c4c(N)ncnc4n3C(C)C)C2)CC1 [II-88] | 1 to 10 | 1 to 10 | – | 1 to 10 |
| C=CC(=O)N1CC[C@@H](N2CC(C#Cc3c(-c4ccc(Cl)c(OC)c4)c4c(N)ncnc4n3CCOC)C2)[C@@H](O)C1 [II-56] | 0.01 to 1 | 0.01 to 1 | – | 0.01 to 1 |
| C=CC(=O)N1CC[C@@H](N2CC(C#Cc3c(-c4ccc(Oc5ccsn5)cc4)c4c(N)ncnc4n3C)C2)[C@@H](O)C1 [II-12] | 0.01 to 1 | 0.01 to 1 | 0.01 to 1 | – |
| C=CC(=O)N1CC[C@@H](N2CC(C#Cc3c(-c4ccc(Cl)c(CF)c4)c4c(N)ncnc4n3C)C2)[C@@H](O)C1 [II-58] | 0.01 to 1 | 0.01 to 1 | – | 0.01 to 1 |
| C=CC(=O)N1CC2(CC(C#Cc3c(-c4ccc(Oc5ccccc5)cc4)c4c(N)ncnc4n3C(C)C)C2)C1 [Example I-19] | ≤ 0.01 | ≤ 0.01 | ≤ 0.01 | – |
